# Reference: PubChem BioAssay (NCI)
# Several values for one entry are separate records, joined by “and”; a condition that tells them apart may be missing. Equal entries are not always repeated.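 Exposure lasted 48 hours, with cells grown in 96-well plates and compounds tested at five concentrations. GI50 marks 50% less growth. The concentration for full growth arrest is given as TGI.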
# Columns and labels:
# Experiment in all cases: NCI-60 cell line screen, 48 h
# HCC-2998 colon = system: HCC-2998 colon
# MDA-MB-231 breast = system: MDA-MB-231 breast
# NCI-H226 lung = system: NCI-H226 lung
# NCI-H23 lung = system: NCI-H23 lung
# NCI-H460 lung = system: NCI-H460 lung
# SNB-75 CNS = system: SNB-75 CNS
# TK-10 renal = system: TK-10 renal
# UO-31 renal = system: UO-31 renal
# DLD-1 colon = system: DLD-1 colon
# M19-MEL melanoma = system: M19-MEL melanoma
SMILES,GI50 (HCC-2998 colon),TGI (HCC-2998 colon),GI50 (MDA-MB-231 breast),TGI (MDA-MB-231 breast),GI50 (NCI-H226 lung),TGI (NCI-H226 lung),GI50 (NCI-H23 lung),TGI (NCI-H23 lung),GI50 (NCI-H460 lung),TGI (NCI-H460 lung),GI50 (SNB-75 CNS),TGI (SNB-75 CNS),GI50 (TK-10 renal),TGI (TK-10 renal),GI50 (UO-31 renal),TGI (UO-31 renal),TGI (DLD-1 colon),TGI (M19-MEL melanoma)
CCN(CC)CCOc1ccc(C2=C(c3ccccc3)CCc3cc(OC)ccc32)cc1,1.39 µM,2.81 µM,2.26 µM,7.44 µM,3.07 µM,12.6 µM,2.9 µM,11.3 µM,1.84 µM,3.52 µM,1.4 µM,4.62 µM,2.74 µM,9.47 µM,1.86 µM,4.13 µM,–,–
O=C1c2ccccc2C(=O)c2c1ccc1c3ccccc3n(Cc3ccccc3)c21,–,–,–,–,–,> 100 µM,–,–,–,> 100 µM,–,> 100 µM,–,–,–,> 100 µM,> 100 µM,> 100 µM
CCCCCCCCCCCCCCCCCC1=NC(C)(C)CN1CCO,1.71 µM,3.11 µM,1.77 µM,3.41 µM,2.84 µM,9.04 µM,1.71 µM,3.33 µM,1.97 µM,3.65 µM,1.81 µM,4.01 µM,1.73 µM,3.31 µM,1.57 µM,3.05 µM,–,–
C[C@]12CC[C@@H]3c4ccc(O)cc4CC[C@H]3[C@@H]1CC[C@@H]2NS(=O)(=O)c1ccc(-c2ccccc2)cc1,4.39 µM,> 100 µM,4.58 µM,19.6 µM,3.13 µM,19.4 µM,3.49 µM,17.2 µM,3.05 µM,9.48 µM,3.5 µM,55.2 µM,4.42 µM,55.9 µM,3.56 µM,> 100 µM,–,–
CC1SC2(CCCCC2)N(NC(=O)c2[nH]c3ccc(F)cc3c2-c2ccccc2)C1=O (centres undefined),> 100 µM,> 100 µM,31 µM,> 100 µM,> 100 µM,> 100 µM,> 100 µM,> 100 µM,> 100 µM,> 100 µM,27.2 µM,62 µM,35.3 µM,> 100 µM,> 100 µM,> 100 µM,–,–
CC(C)n1nc(C#Cc2cccc(NC(=O)c3cccc(C(F)(F)F)c3)c2)c2c(N)ncnc21,2.36 µM,75.7 µM,0.256 µM,2.07 µM,0.99 µM,6.35 µM,1.95 µM,22.8 µM,3 µM,> 100 µM,1.75 µM,3.89 µM,1.78 µM,4.45 µM,0.601 µM,6.1 µM,–,–
C=C(CC1(CC(=C)c2ccc(C(=O)O)cc2)C(=O)N(C)C(=O)N(C)C1=O)c1ccc(C(=O)O)cc1,61.2 µM,> 100 µM,> 100 µM,> 100 µM,> 100 µM,> 100 µM,> 100 µM,> 100 µM,> 100 µM,> 100 µM,25.2 µM,> 100 µM,16 µM,> 100 µM,57.2 µM,> 100 µM,–,–
COc1cc(OC)cc(N2CCN(C(=O)Nc3nc4cc(F)ccc4nc3OC)CC2)c1,0.0445 µM and 0.0377 µM and 0.0381 µM,31.4 µM and 27.1 µM,0.0524 µM and 0.0976 µM and 0.0361 µM,–,0.197 µM and 0.0515 µM and 0.136 µM,–,0.0578 µM and 0.062 µM and 0.052 µM,52.2 µM and 34.5 µM,0.0323 µM and 0.0358 µM and 0.0339 µM,25.3 µM and 14.9 µM,0.0197 µM and 0.0243 µM,56.4 µM and 57.2 µM,16.6 µM and 10.3 µM,71.6 µM and 63.8 µM,0.0681 µM and 0.0692 µM and 0.0336 µM,38.9 µM and 43.3 µM,–,–
O=C1/C(=C/c2ccccc2)CN(C(=O)OCC(Cl)(Cl)Cl)C/C1=C\c1ccccc1,–,–,–,–,–,–,–,9.46 µM,–,5.66 µM,–,13.6 µM,–,17.1 µM,–,12.1 µM,3.77 µM,2.79 µM
CCCOc1c2cc(COC3OC(CO)C(O)C(O)C3O)cc1Cc1cc(COC3OC(CO)C(O)C(O)C3O)cc(c1OCCC)Cc1cc(COC3OC(CO)C(O)C(O)C3O)cc(c1OCCC)Cc1cc(COC3OC(CO)C(O)C(O)C3O)cc(c1OCCC)C2 (centres undefined),–,> 100 µM,45.2 µM and > 100 µM and 17 µM,> 100 µM and 34.1 µM,59.2 µM and > 100 µM and 17.7 µM,> 100 µM and 40.1 µM,69.6 µM and 71 µM and 21.2 µM,> 100 µM and 52.8 µM,56.9 µM and > 100 µM and 30.3 µM,> 100 µM and 92.3 µM,18.5 µM and 55.4 µM and 22.2 µM,93.7 µM and > 100 µM and 62.8 µM,> 100 µM and 46.8 µM,> 100 µM,> 100 µM and 28.8 µM,> 100 µM,–,–
O=[N+]([O-])O.[NH-]C1CCCCC1[NH-].[NH-]C1CCCCC1[NH-].[NH-]C1CCCCC1[NH-].[OH-].[OH-].[OH-].[Pt+4].[Pt+4].[Pt+4] (centres undefined),2.09 µM,19 µM,4.01 µM,> 64.4 µM,1.37 µM,27.5 µM,0.359 µM,4.7 µM,0.241 µM,7.07 µM,1.49 µM,32.6 µM,2.2 µM,28.9 µM,0.373 µM,15.5 µM,–,–
CC(=O)N[C@@H]1CCC[C@H](C(=O)Nc2cc(-c3cnn4c3CC(C)(C)C4)c(Cl)cn2)C1,< 0.0149 µM,0.237 µM,< 0.0133 µM,> 100 µM,< 0.01 µM,38.7 µM,< 0.0116 µM,0.181 µM,< 0.0115 µM,12.4 µM,< 0.01 µM,0.029 µM,< 0.01 µM,> 100 µM,0.0241 µM,–,–,–
CC(=O)Nc1ccc(-n2cnc3cc(-c4ccc(OCCN5CCCCC5)cc4)ccc32)cc1,5.98 µM,14.6 µM,5.33 µM,13 µM,2.92 µM,8.43 µM,5.07 µM,11.6 µM,1.49 µM,5.3 µM,4.11 µM,8.31 µM,9.11 µM,15.9 µM,2.33 µM,7.06 µM,–,–
CC(C)(C)NCCC(O)c1cc(C(F)(F)F)nc2c(C(F)(F)F)cccc12 (centres undefined),–,8.73 µM,–,22.8 µM,–,33.4 µM,–,9.74 µM,–,16.8 µM,–,26.5 µM,–,24.8 µM,–,1.34 µM,–,–
CC(C)(C)c1ccc(S(=O)(=O)N[C@H]2CC[C@H]3[C@@H]4CCc5cc(O)ccc5[C@H]4CC[C@]23C)cc1,2.8 µM,7.1 µM,1.91 µM,4.13 µM,1.75 µM,3.51 µM,2.03 µM,4.28 µM,1.98 µM,4.16 µM,2.08 µM,6.38 µM,3.79 µM,12.1 µM,1.81 µM,4.11 µM,–,–
